Results published in patent US6316194A, “Methods and kits for discovery of RNA-binding antimicrobials” (Ribotargets, priority 1999, dated 2001).

Tested on: DABCYL-A site RNA (25 nucleotide model of the 16S rRNA A site, SEQ ID No. 1)
Assay: Competitive inhibition of paramomycin-TAMRA binding to DABCYL-A site RNA by unlabelled antibiotic (FRET, 96-well plate reader)
Settings: 25 nM paramomycin-TAMRA
Protocol: (§1) Binding of paramomycin-TAMRA to A site RNA was measured in a fluorescent plate reader. Measurements were made in a 96-well plate reader (Wallac victor) with a fixed wavelength of 544 nm and emission at 590 nm. I0 was determined by an initial measurement of a 95 μL solution of 25 nM paramomycin-TAMRA in the presence of 50 mM Tris-HCl pH7.5, 80 mM KCl, 0.1% DMSO 0.00007% Triton X-100 and 0.5 ug/mL BSA presence of 10 μM Neomycin. I (the final measurement) was then measured following the addition of 5 μL of a 20×DABCYL-A site RNA stock solution (corresponding to the amounts shown in the figure).
as §1, with “of 15” for “of 10”, “in FIG. 9). […]” for “in the figure).”

Row | Compound | Inhibition of paramomycin-TAMRA to A site binding (15 μM Paramomycin (heading)) | Inhibition of paramomycin-TAMRA to A site binding (10 μM Neomycin)
1 | NC[C@@H]1O[C@H](O[C@H]2[C@@H](O)[C@H](O[C@@H]3[C@@H](O)[C@H](N)C[C@H](N)[C@H]3O[C@H]3O[C@H](CO)[C@@H](O)[C@H](O)[C@H]3N)O[C@@H]2CO)[C@H](N)[C@@H](O)[C@@H]1O [paramomycin] | competitive inhibitor | 
2 | Neomycin |  | a reduction in fluorescence in the presence of the neomycin competitor was observed
